Data reported in PubChem BioAssay (NCI).
Several values for one entry are separate records, joined by “and”; a condition that tells them apart may be missing. Equal values may be shown once.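 Results reflect a 48-hour exposure of cells in 96-well plates to compound at five concentrations. Abbreviation: GI50, concentration required for 50% inhibition of growth. Definition used: TGI = concentration required for complete inhibition of growth.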 Where a SMILES comes first, the peptide text is derived from it. [ ]: non-standard residue; d: D form. The star is where a group is joined. NMeF = CN[CH](Cc1ccccc1)C(=O)O; NMeV = CN[CH](C(=O)O)C(C)C; Boc = CC(C)(C)OC(=O)*; OBn = c1ccc(CO*)cc1

Key:
Assay in all cases: growth of human tumour cells (NCI), 48 h
[1] = system: 786-0 renal
[2] = system: A498 renal
[3] = system: EKVX NSCLC
[4] = system: HCC-2998 colon
[5] = system: HT29 colon
[6] = system: NCI-H226 lung
[7] = system: NCI/ADR-RES ovarian
[8] = system: OVCAR-4 ovarian
[9] = system: OVCAR-8 ovarian
[10] = system: SN12C renal
[11] = system: HL-60(TB) leukemia
[12] = system: MOLT-4 leukemia
[13] = system: HS 578T breast
[14] = system: SK-MEL-5 melanoma
[15] = system: SNB-75 CNS

SMILES | TGI [1] [µM] | TGI [2] [µM] | TGI [3] [µM] | TGI [4] [µM] | TGI [5] | TGI [6] [µM] | TGI [7] [µM] | TGI [8] [µM] | TGI [9] [µM] | TGI [10] | TGI [11] | TGI [12] | TGI [13] [µM] | TGI [14] [µM] | TGI [15] [µM] | GI50 [8] | GI50 [15] [µM] | GI50 [12] | GI50 [10]
CC[C@H](C)[C@@H]([C@@H](CC(=O)N1CCC[C@H]1[C@H](OC)[C@@H](C)C(=O)NCCc1ccccc1)OC)N(C)C(=O)C(NC(=O)[C@H](C(C)C)N(C)C)C(C)C (some centres not stated) | 1.34 | > 10 | 7.57 | 0.00228 | 0.00163 µM | 0.00784 | > 10 | > 10 | > 10 | 0.00499 µM and 0.00515 µM | – | – | – | – | – | – | – | – | –
Cc1cc(C)c(NS(=O)c2cccc(C(F)(F)F)c2)c(C)c1 (configuration not stated) | > 100 | > 100 | – | – | > 100 µM | > 100 | > 100 | – | > 100 | > 100 µM | > 100 µM | > 100 µM | – | – | – | – | – | – | –
C/C=C/c1cc2c(cc1O)CC[C@@H]1[C@@H]2CC[C@]2(C)[C@@H](O)CC[C@@H]12 | 13.8 | 6.11 | 24.7 | 7.13 | 20.4 µM | 1.96 | – | 27.2 | 18.1 | 20.5 µM | – | 15.8 µM | 22.3 | 14.2 | 3.48 | – | – | – | –
CNc1cc([N+](=O)[O-])ccc1C(=O)N1CCC[C@H]1CO | > 100 | > 100 | > 100 | – | > 100 µM | > 100 | > 100 | – | > 100 | > 100 µM | > 100 µM | > 100 µM | – | – | > 100 | – | – | – | –
CC(=O)OCC1OC(n2c(C)c(C(C)=O)c(-c3ccco3)c(C#N)c2=S)C(OC(C)=O)C(OC(C)=O)C1OC(C)=O (configuration not stated) | > 100 | > 100 | > 100 | > 100 | > 100 µM | > 100 | > 100 | > 100 | > 100 | > 100 µM | > 100 µM | > 100 µM | – | > 100 | 82.1 | > 100 µM and 37.8 µM | 0.171 | – | –
COC(=O)/C=C/CCC#Cc1ccccc1C#CCC/C=C/C(=O)OC | 53.2 | > 100 | > 100 | > 100 | 40.4 µM | > 100 | 66.2 | > 100 | 26 | 55.7 µM | 9.63 µM | 10.5 µM | – | – | 19 | – | – | – | –
CN(C)c1ccc(C=Nc2ccc(-c3nc4ccccc4s3)cc2)cc1 | 42.8 | 37.1 | > 100 | 44.5 | > 100 µM | > 100 | 92 | > 100 | > 100 | > 100 µM | 0.525 µM | > 100 µM | – | 44.8 | 80.9 | – | – | – | –
C/C(O)=C(\C=N\C(=S)N=Nc1c(O)[nH]c2ccccc12)C(=O)Nc1ccccc1C | > 100 | > 100 | > 100 | > 100 | > 100 µM | > 100 | > 100 | > 100 | > 100 | > 100 µM | > 100 µM | > 100 µM | – | > 100 | > 100 | – | – | – | –
CC(C)C(NC(=O)OC(C)(C)C)C(=O)N(C)C(Cc1ccccc1)C(=O)N(C)C(C(=O)OCc1ccccc1)C(C)C (stereo not drawn) (Boc-Val-[NMeF]-[NMeV]-OBn; configuration not given here) | > 100 | – | > 100 | > 100 | 32.3 µM and > 100 µM | > 100 | – | – | > 100 | > 100 µM | > 100 µM and 53.9 µM | 39.6 µM and 44 µM | – | 44.6 | – | – | – | 5.92 µM and 14.8 µM | 44.3 µM and > 100 µM
CCN(CC)C(=O)CCn1cc(F)c(=O)[nH]c1=O | > 100 | – | > 100 | – | > 100 µM | > 100 | – | > 100 | > 100 | > 100 µM | > 100 µM | > 100 µM | – | > 100 | > 100 | – | – | – | –
Cc1ccc(Nc2cccc3c2C(=O)c2cccc(Nc4ccc(C)cc4S(=O)(=O)O)c2C3=O)c(S(=O)(=O)O)c1 | > 100 | > 100 | > 100 | > 100 | – | > 100 | – | > 100 | > 100 | > 100 µM | > 100 µM | > 100 µM | – | > 100 | > 100 | – | – | – | –
C=C(C)C1CC[C@@](C)(O)[C@H](C#N)C1 (some centres not stated) | > 100 | > 100 | > 100 | > 100 | > 100 µM | > 100 | – | > 100 | > 100 | > 100 µM | > 100 µM | > 100 µM | > 100 | > 100 | > 100 | – | – | – | –
COc1cc(S(=O)(=O)Nc2ccc(-c3csc(N4C(=O)C(C)SC4c4cccs4)n3)cc2)ccc1Cl (configuration not stated) | > 100 | > 100 | > 100 | – | > 100 µM | > 100 | > 100 | – | > 100 | > 100 µM | 41.7 µM | > 100 µM | > 100 | > 100 | – | – | – | – | –
Clc1cccc(-c2nc3cccc4c3n2Cc2ncccc2-4)c1 | > 100 | > 100 | > 100 | > 100 | > 100 µM | > 100 | > 100 | > 100 | > 100 | > 100 µM | – | – | – | – | 58.6 | – | – | – | –
COc1ccccc1-n1nnc2c(N)nc(N)nc21 | > 100 | > 100 | > 100 | – | > 100 µM | > 100 | > 100 | > 100 | > 100 | > 100 µM | > 100 µM | > 100 µM | > 100 | > 100 | > 100 | – | – | – | –
CCOC(=O)C1=C(C)N(c2ccc(Cl)cc2)C2(O)C=CC(=O)C3=C(O)c4ccccc4C(=O)C312 (configuration not stated) | 4.07 | 30 | 21.4 | – | – | – | 12.6 | 8.33 | 19.1 | 13.5 µM | 5.77 µM | 8.65 µM | 23.1 | 20.4 | – | – | – | – | –
